Assay [1] addresses T1, TGF-beta receptor type-1 (Homo sapiens, UniProt P36897).
T1 sequence (P36897 whole entry): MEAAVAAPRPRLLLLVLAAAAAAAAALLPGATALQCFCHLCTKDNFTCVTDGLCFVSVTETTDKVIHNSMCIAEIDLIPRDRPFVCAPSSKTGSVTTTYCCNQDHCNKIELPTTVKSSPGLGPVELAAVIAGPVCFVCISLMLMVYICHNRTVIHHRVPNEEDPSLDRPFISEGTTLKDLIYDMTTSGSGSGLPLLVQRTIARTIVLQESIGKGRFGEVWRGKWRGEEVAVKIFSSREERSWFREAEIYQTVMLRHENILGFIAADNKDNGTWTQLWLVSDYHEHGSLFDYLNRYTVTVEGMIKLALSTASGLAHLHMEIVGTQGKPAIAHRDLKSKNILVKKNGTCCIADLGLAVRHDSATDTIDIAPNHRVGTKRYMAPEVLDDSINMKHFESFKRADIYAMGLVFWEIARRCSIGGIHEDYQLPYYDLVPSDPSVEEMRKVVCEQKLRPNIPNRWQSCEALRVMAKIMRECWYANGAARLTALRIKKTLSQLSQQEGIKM
In words: In vitro inhibition of transforming growth factor- beta dependent luciferase production in mink lung cells (p3TP Lux). It counts as functional, cell-based.

Assay [2] has as its target Mitogen-activated protein kinase 14 (Homo sapiens, UniProt Q16539). In words: In vitro inhibitory activity against Mitogen-activated protein kinase p38.
Assay [3] concerns the target T1, TGF-beta receptor type-1. In words: In vitro inhibition of transforming growth factor- beta dependent luciferase growth in mouse fibroblasts (NIH 3T3). The class given is functional. To be noted: target entry is the homologue from another species.
The target of assay [4] is T1, TGF-beta receptor type-1. In words: In vitro inhibitory activity against human Transforming growth factor beta-1 receptor kinase (TGF-beta RIK).

Among the data in ChEMBL document CHEMBL1145076, “Synthesis and activity of new aryl- and heteroaryl-substituted pyrazole inhibitors of the transforming growth factor-beta type I receptor kinase domain” (J Med Chem, 2003) are IC50 values, retold here.

pIC50: −log10 of the molar value.

Chain of Mitogen-activated protein kinase 14 (Q16539 whole entry): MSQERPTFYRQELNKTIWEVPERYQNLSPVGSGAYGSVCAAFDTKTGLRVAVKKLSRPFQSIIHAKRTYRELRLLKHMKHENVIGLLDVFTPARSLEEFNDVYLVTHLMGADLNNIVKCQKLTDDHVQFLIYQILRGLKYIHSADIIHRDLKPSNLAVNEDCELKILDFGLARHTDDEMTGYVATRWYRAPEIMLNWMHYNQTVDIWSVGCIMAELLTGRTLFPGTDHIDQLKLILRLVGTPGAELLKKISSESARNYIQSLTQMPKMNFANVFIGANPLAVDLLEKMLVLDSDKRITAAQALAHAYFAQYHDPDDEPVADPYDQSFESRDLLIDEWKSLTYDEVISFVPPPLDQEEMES

One may read the pIC50 as the negative decadic logarithm of the IC50, by convention in mol/L. Read a high pIC50 as a small IC50. Regarding `Cc1cccc(-c2n[nH]cc2-c2ccc(O)cc2)n1`, the pIC50 was 7.36 on TGF-beta receptor type-1 [1], 6.25 in assay [2], 7.49 at TGF-beta receptor type-1 [3] and 7.51 against TGF-beta receptor type-1 [4].
The corresponding values for `c1ccc(-c2c[nH]nc2-c2ccnc3ccccc23)nc1` are 6.17, 5.11, 5.77 and 6.82.
Take `c1csc(-c2n[nH]cc2-c2ccnc3ccccc23)c1`: the pIC50 was 5.78 against TGF-beta receptor type-1 [1], 6.40 in assay [2], 5.55 on TGF-beta receptor type-1 [3] and 6.45 on TGF-beta receptor type-1 [4].
The corresponding values for `Brc1cccc(-c2n[nH]cc2-c2ccnc3ccccc23)n1` are 8.54, 6.96, 8.92 and 7.51.
Taken in the same sequence, the figures for `Cc1cccc(-c2n[nH]cc2-c2ccccc2)n1` were 5.47, below 4.70, 5.67 and 6.27.
Taken in the same sequence, the figures for `Clc1ccc(-c2n[nH]cc2-c2ccnc3ccccc23)nc1` were below 5.00, 5.64, 5.33 and 5.75.
For `Cc1cccc(-c2[nH]ncc2-c2ccc(F)c(F)c2)n1`, the pIC50 was 6.10 at TGF-beta receptor type-1 [1], below 4.70 in assay [2], 6.17 at TGF-beta receptor type-1 [3] and 6.82 on TGF-beta receptor type-1 [4].
The corresponding values for `Cc1cccc(-c2n[nH]cc2-c2ccnc3ccccc23)n1` are 8.54, 7.11, 8.15 and 7.47.
On to `c1ccc(-c2n[nH]cc2-c2ccnc3ccccc23)nc1`, for which, in assay [2], the pIC50 is 6.13.
In the case of `Fc1ccc(-c2n[nH]cc2-c2ccnc3ccccc23)nc1`, the negative-log IC50 (pIC50) is 7.03 on TGF-beta receptor type-1 [1], 5.89 in assay [2], 7.12 at TGF-beta receptor type-1 [3] and 7.04 against TGF-beta receptor type-1 [4].
In the case of `Cc1cccc(-c2[nH]ncc2-c2ccc(Cl)cc2)n1`, the negative-log IC50 (pIC50) at TGF-beta receptor type-1 [1] was 6.26; in assay [2], below 4.70; against TGF-beta receptor type-1 [3] it was 6.38; against TGF-beta receptor type-1 [4] it was 7.24.
In the case of `COc1ccc(-c2cn(C)nc2-c2cccc(C)n2)cc1`, the pIC50 against TGF-beta receptor type-1 [1] is 7.33; in assay [2], 5.27; on TGF-beta receptor type-1 [3] it was 7.21; against TGF-beta receptor type-1 [4], 7.36.
The corresponding values for `c1ccc(Cn2cc(-c3ccnc4ccccc34)c(-c3ccccn3)n2)cc1` are 6.40, 6.29, 5.87 and 6.43.
The corresponding values for `Cc1cccc(-c2n[nH]c(C)c2-c2ccnc3ccccc23)n1` are 7.62, 6.60, 6.83 and 7.09.
`c1ccc(-c2n[nH]c(C3CC3)c2-c2ccnc3ccccc23)nc1`: the pIC50 against TGF-beta receptor type-1 [1] is 7.03; in assay [2], 6.55; against TGF-beta receptor type-1 [3] it was 6.27; against TGF-beta receptor type-1 [4] it was 6.69.
Taken in the same sequence, the figures for `c1ccc(-c2c[nH]nc2-c2ccccn2)cc1` were below 5.05, below 4.70, 5.02 and 5.40.
Taken in the same sequence, the figures for `Cc1cccc(-c2n[nH]cc2-c2ccc(F)cc2)n1` were 6.86, below 4.70, 7.39 and 7.15.
Taken in the same sequence, the figures for `Fc1ccc(-c2c[nH]nc2-c2ccccn2)cc1` were 5.45, 5.17, 5.59 and 6.56.
For the compound `FC(F)(F)c1cccc(-c2n[nH]cc2-c2ccnc3ccccc23)c1`, the pIC50 on TGF-beta receptor type-1 [1] was 6.45; in assay [2], 8.17; at TGF-beta receptor type-1 [3], 6.28; against TGF-beta receptor type-1 [4], 6.66.
Taken in the same sequence, the figures for `c1ccc(-c2n[nH]cc2-c2ccnc3ccccc23)cc1` were 5.92, 7.60, 5.53 and 6.42.
